# According to patent publication US20250115598A1 (Anaxis Pharma Pty Ltd, priority 2021, published 2025):
# Read-outs that look alike come from different tables or passages of the source.
# Assays:
# human MLKL (full length) = human MLKL (full length) (Homo sapiens (Human), UniProt Q8NB16); assay: KINOMEscan binding assay, human MLKL (full length)
# In short: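 In this assay, compounds displace DNA- or phage-tagged kinase from an immobilized ligand, and eluted kinase is quantified by qPCR.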
# [1] = tested on: U937 human histiocytic leukemia cell line; assay: Cellular assay: inhibition of TSQ induced necroptosis, CellTitre-Glo viability; conditions: U937 cells, 48 hours, TSQ cocktail, read-out: Inhibition of TSQ-induced necroptosis (IC50 cell-based assay)
# In short: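 U937 cells (20,000/well) treated with compound (10-point, 36 μM top, 1:3) plus TSQ cocktail (hTNF-Fc 100 ng/ml, Smac mimetic 500 nM, Q-VD-OPh 10 μM), 48 h at 37° C., 0.3% DMSO. Viability by CellTitre-Glo ATP luminescence; counter screen without TSQ measured compound-only effects on viability.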
# [2] = KINOMEscan, Table 21, read-out: Human MLKL (full-length) (KD)
# [3] = hMLKL, Table 25, read-out: MLKL (KD)
# Sequence of human MLKL (full length) (Q8NB16 whole entry): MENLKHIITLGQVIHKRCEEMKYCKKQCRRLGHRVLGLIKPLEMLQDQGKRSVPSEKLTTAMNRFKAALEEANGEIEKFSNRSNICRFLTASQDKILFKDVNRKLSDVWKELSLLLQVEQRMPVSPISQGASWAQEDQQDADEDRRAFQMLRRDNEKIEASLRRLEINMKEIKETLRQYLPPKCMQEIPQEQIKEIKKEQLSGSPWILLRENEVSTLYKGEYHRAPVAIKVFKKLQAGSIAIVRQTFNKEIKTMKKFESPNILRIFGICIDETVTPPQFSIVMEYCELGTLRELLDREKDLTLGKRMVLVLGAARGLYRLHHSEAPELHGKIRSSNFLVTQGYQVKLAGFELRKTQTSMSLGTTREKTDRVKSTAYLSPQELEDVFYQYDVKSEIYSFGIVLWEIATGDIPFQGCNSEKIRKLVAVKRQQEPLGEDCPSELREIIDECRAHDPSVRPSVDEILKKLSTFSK
Kd (human MLKL (full length); [2]),Kd (human MLKL (full length); [3]),Compound,IC50 ([1]; Table 23),"IC50 ([1]; Homo sapiens, U-937, Table 26)"
1 to 100 nM,–,Nc1ncc(-c2cnn(C3CCOCC3)c2)c2[nH]nc(-c3ccc(NS(=O)(=O)C(F)F)c(OCc4cccc(Cl)c4)c3)c12 [Compound 131],10 to 1000 nM,–
–,< 10 nM,"Cc1ncsc1-c1ccc(CNC(=O)[C@@H]2C[C@@H](O)CN2C(=O)[C@@H](NC(=O)COCCOCCn2cc(-c3cnc(N)c4c(-c5ccc(NS(=O)(=O)C(F)F)c(O[C@@H](C)c6ccc(F)cc6)c5)nn(C)c34)cn2)C(C)(C)C)cc1 [Compound 1006, (2S,4R)-1-[(2S)-2-(2-{2-[2-(4-{4-amino-3-[4-(difluoromethanesulfonamido)-3-[(1S)-1-(4-fluorophenyl)ethoxy]phenyl]-1-methyl-1H-pyrazolo[4,3-c]pyridin-7-yl}-1H-pyrazol-1-yl)ethoxy]ethoxy}acetamido)-3,3-dimethylbutanoyl]-4-hydroxy-N-{[4-(4-methyl-1,3-thiazol-5-yl)phenyl]methyl}pyrrolidine-2-carboxamide]",–,< 1000 nM
–,< 10 nM,"Cc1ncsc1-c1ccc(CNC(=O)[C@@H]2C[C@@H](O)CN2C(=O)[C@@H](NC(=O)CCCCCCn2cc(-c3cnc(N)c4c(-c5ccc(NS(=O)(=O)C(F)F)c(O[C@@H](C)c6ccc(F)cc6)c5)nn(C)c34)cn2)C(C)(C)C)cc1 [Compound 1008, (2S,4R)-1-[(2S)-2-[7-(4-{4-amino-3-[4-(difluoromethanesulfonamido)-3-[(1 S)-1-(4-fluorophenyl)ethoxy]phenyl]-1-methyl-1H-pyrazolo[4,3-c]pyridin-7-yl}-1H-pyrazol-1-yl)heptanamido]-3,3-dimethylbutanoyl]-4-hydroxy-N-{[4-(4-methyl-1,3-thiazol-5-yl)phenyl]methyl}pyrrolidine-2-carboxamide]",–,< 1000 nM
–,–,"Cc1ncsc1-c1ccc(CNC(=O)[C@@H]2C[C@@H](O)CN2C(=O)[C@@H](NC(=O)CCN2CCCC(n3cc(-c4cnc(N)c5c(-c6ccc(NS(=O)(=O)C(F)F)c(O[C@@H](C)c7ccc(F)cc7)c6)nn(C)c45)cn3)C2)C(C)(C)C)cc1 (stereo partly drawn) [Compound 1014, (2S,4R)-1-[(2S)-2-{3-[3-(4-{4-amino-3-[4-(difluoromethanesulfonamido)-3-[(1S)-1-(4-fluorophenyl)ethoxy]phenyl]-1-methyl-1H-pyrazolo[4,3-c]pyridin-7-yl}-1H-pyrazol-1-yl)piperidin-1-yl]propanamido}-3,3-dimethylbutanoyl]-4-hydroxy-N-{[4-(4-methyl-1,3-thiazol-5-yl)phenyl]methyl}pyrrolidine-2-carboxamide]",–,< 1000 nM
–,< 10 nM,"Cc1ncsc1-c1ccc(CNC(=O)[C@@H]2C[C@@H](O)CN2C(=O)[C@@H](NC(=O)COCCN2CCCC(n3cc(-c4cnc(N)c5c(-c6ccc(NS(=O)(=O)C(F)F)c(O[C@@H](C)c7ccc(F)cc7)c6)nn(C)c45)cn3)C2)C(C)(C)C)cc1 (stereo partly drawn) [Compound 1015, (2S,4R)-1-[(2S)-2-(2-{2-[3-(4-{4-amino-3-[4-(difluoromethanesulfonamido)-3-[(1S)-1-(4-fluorophenyl)ethoxy]phenyl]-1-methyl-1H-pyrazolo[4,3-c]pyridin-7-yl}-1H-pyrazol-1-yl)piperidin-1-yl]ethoxy}acetamido)-3,3-dimethylbutanoyl]-4-hydroxy-N-{[4-(4-methyl-1,3-thiazol-5-yl)phenyl]methyl}pyrrolidine-2-carboxamide]",–,< 1000 nM
–,< 10 nM,"Cc1ncsc1-c1ccc(CNC(=O)[C@@H]2C[C@@H](O)CN2C(=O)[C@@H](NC(=O)COCCN2CCC(n3cc(-c4cnc(N)c5c(-c6ccc(NS(=O)(=O)C(F)F)c(O[C@@H](C)c7ccc(F)cc7)c6)nn(C)c45)cn3)CC2)C(C)(C)C)cc1 [Compound 1018, (2S,4R)-1-[(2S)-2-(2-{2-[4-(4-{4-amino-3-[4-(difluoromethanesulfonamido)-3-[(1S)-1-(4-fluorophenyl)ethoxy]phenyl]-1-methyl-1H-pyrazolo[4,3-c]pyridin-7-yl}-1H-pyrazol-1-yl)piperidin-1-yl]ethoxy}acetamido)-3,3-dimethylbutanoyl]-4-hydroxy-N-{[4-(4-methyl-1,3-thiazol-5-yl)phenyl]methyl}pyrrolidine-2-carboxamide]",–,< 1000 nM
–,10 to 1000 nM,"C[C@H](Oc1cc(-c2nn(C)c3c(-c4cnn(CCCCCCCOc5cccc6c5C(=O)N(C5CCC(=O)NC5=O)C6=O)c4)cnc(N)c23)ccc1NS(=O)(=O)C(F)F)c1ccc(F)cc1 (stereo partly drawn) [Compound 1031, N-(4-{4-amino-7-[1-(7-{[2-(2,6-dioxopiperidin-3-yl)-1,3-dioxo-2,3-dihydro-1H-isoindol-4-yl]oxy}heptyl)-1H-pyrazol-4-yl]-1-methyl-1H-pyrazolo[4,3-c]pyridin-3-yl}-2-[(1 S)-1-(4-fluorophenyl)ethoxy]phenyl)-1,1-difluoromethanesulfonamide]",–,< 1000 nM
< 1 nM,–,"N-(4-(4-amino-1-methyl-7-(1-(1,2,2-trimethylpiperidin-4-yl)-1H-pyrazol-4-yl)-1H-pyrazolo[4,3-c]pyridin-3-yl)-2-((S)-1-(4-fluorophenyl)ethoxy)phenyl)-1,1-difluoromethanesulfonamide [Compound 113]",< 10 nM,–
